# Active and inactive are the calls of the source. The rule behind the calls is not given here.
# System: CCRIS mutagenicity, Ames/micronucleus/aberration tests
# Assay: CCRIS mutagenicity studies
# [1] = Test System: AMES SALMONELLA TYPHIMURIUM, Strain/Indicator: TA100, Metabolic Activation: NONE, Method: PREINCUBATION
# [2] = Test System: AMES SALMONELLA TYPHIMURIUM, Strain/Indicator: TA98, Metabolic Activation: NONE, Method: STANDARD PLATE
# [3] = Test System: AMES SALMONELLA TYPHIMURIUM, Strain/Indicator: TA100, Metabolic Activation: NONE, Method: STANDARD PLATE
# [4] = Test System: AMES SALMONELLA TYPHIMURIUM, Strain/Indicator: TA1535, Metabolic Activation: NONE, Method: STANDARD PLATE
# [5] = Test System: AMES SALMONELLA TYPHIMURIUM, Strain/Indicator: TA1537, Metabolic Activation: NONE, Method: STANDARD PLATE
structure (smiles),measurement,setting,value
CCCCC(CC)CN (stereo not drawn),mutagenic call,"Test System: AMES SALMONELLA TYPHIMURIUM, Strain/Indicator: TA97, Metabolic Activation: HAMSTER, LIVER, S-9, AROCLOR 1254 (10%), Method: PREINCUBATION",inactive; negative
same,mutagenic call,"Test System: AMES SALMONELLA TYPHIMURIUM, Strain/Indicator: TA97, Metabolic Activation: HAMSTER, LIVER, S-9, AROCLOR 1254 (30%), Method: PREINCUBATION",inactive; negative
same,mutagenic call,"Test System: AMES SALMONELLA TYPHIMURIUM, Strain/Indicator: TA97, Metabolic Activation: NONE, Method: PREINCUBATION",inactive; negative
same,mutagenic call,"Test System: AMES SALMONELLA TYPHIMURIUM, Strain/Indicator: TA97, Metabolic Activation: RAT, LIVER, S-9, AROCLOR 1254 (10%), Method: PREINCUBATION",inactive; negative
same,mutagenic call,"Test System: AMES SALMONELLA TYPHIMURIUM, Strain/Indicator: TA97, Metabolic Activation: RAT, LIVER, S-9, AROCLOR 1254 (30%), Method: PREINCUBATION",inactive; negative
same,mutagenic call,"Test System: AMES SALMONELLA TYPHIMURIUM, Strain/Indicator: TA98, Metabolic Activation: HAMSTER, LIVER, S-9, AROCLOR 1254 (10%), Method: PREINCUBATION",inactive; negative
same,mutagenic call,"Test System: AMES SALMONELLA TYPHIMURIUM, Strain/Indicator: TA98, Metabolic Activation: HAMSTER, LIVER, S-9, AROCLOR 1254 (30%), Method: PREINCUBATION",inactive; negative
same,mutagenic call,"Test System: AMES SALMONELLA TYPHIMURIUM, Strain/Indicator: TA98, Metabolic Activation: NONE, Method: PREINCUBATION",inactive; negative
same,mutagenic call,"Test System: AMES SALMONELLA TYPHIMURIUM, Strain/Indicator: TA98, Metabolic Activation: RAT, LIVER, S-9, AROCLOR 1254 (10%), Method: PREINCUBATION",inactive; negative
same,mutagenic call,"Test System: AMES SALMONELLA TYPHIMURIUM, Strain/Indicator: TA98, Metabolic Activation: RAT, LIVER, S-9, AROCLOR 1254 (30%), Method: PREINCUBATION",inactive; negative
same,mutagenic call,"Test System: AMES SALMONELLA TYPHIMURIUM, Strain/Indicator: TA100, Metabolic Activation: HAMSTER, LIVER, S-9, AROCLOR 1254 (10%), Method: PREINCUBATION",inactive; negative
same,mutagenic call,"Test System: AMES SALMONELLA TYPHIMURIUM, Strain/Indicator: TA100, Metabolic Activation: HAMSTER, LIVER, S-9, AROCLOR 1254 (30%), Method: PREINCUBATION",inactive; negative
same,mutagenic call,[1],inactive; negative
same,mutagenic call,"Test System: AMES SALMONELLA TYPHIMURIUM, Strain/Indicator: TA100, Metabolic Activation: RAT, LIVER, S-9, AROCLOR 1254 (10%), Method: PREINCUBATION",inactive; negative
same,mutagenic call,"Test System: AMES SALMONELLA TYPHIMURIUM, Strain/Indicator: TA100, Metabolic Activation: RAT, LIVER, S-9, AROCLOR 1254 (30%), Method: PREINCUBATION",inactive; negative
same,mutagenic call,"Test System: AMES SALMONELLA TYPHIMURIUM, Strain/Indicator: TA1535, Metabolic Activation: HAMSTER, LIVER, S-9, AROCLOR 1254 (10%), Method: PREINCUBATION",inactive; negative
same,mutagenic call,"Test System: AMES SALMONELLA TYPHIMURIUM, Strain/Indicator: TA1535, Metabolic Activation: HAMSTER, LIVER, S-9, AROCLOR 1254 (30%), Method: PREINCUBATION",inactive; negative
same,mutagenic call,"Test System: AMES SALMONELLA TYPHIMURIUM, Strain/Indicator: TA1535, Metabolic Activation: NONE, Method: PREINCUBATION",inactive; negative
same,mutagenic call,"Test System: AMES SALMONELLA TYPHIMURIUM, Strain/Indicator: TA1535, Metabolic Activation: RAT, LIVER, S-9, AROCLOR 1254 (10%), Method: PREINCUBATION",inactive; negative
same,mutagenic call,"Test System: AMES SALMONELLA TYPHIMURIUM, Strain/Indicator: TA1535, Metabolic Activation: RAT, LIVER, S-9, AROCLOR 1254 (30%), Method: PREINCUBATION",inactive; negative
NNc1nc(-c2ccc([N+](=O)[O-])cc2)cs1,mutagenic call,"Test System: AMES SALMONELLA TYPHIMURIUM, Strain/Indicator: TA98, Metabolic Activation: RAT, LIVER, S-9, KC500 OR PHENOBARBITAL, Method: LIQUID SUSPENSION",active; positive
same,mutagenic call,"Test System: AMES SALMONELLA TYPHIMURIUM, Strain/Indicator: TA100, Metabolic Activation: RAT, LIVER, S-9, KC500 OR PHENOBARBITAL, Method: LIQUID SUSPENSION",active; positive
OC[C@H]1OC(n2cnc3c2ncn2ccnc32)C[C@@H]1O (stereo partly drawn),mutagenic call,[1],inactive; negative
C=C[Si](C)(C)N[Si](C)(C)C=C,mutagenic call,"Test System: AMES SALMONELLA TYPHIMURIUM, Strain/Indicator: TA98, Metabolic Activation: HAMSTER, LIVER, S-9, AROCLOR 1254 (10%), Method: STANDARD PLATE",inactive; negative
same,mutagenic call,[2],inactive; negative
same,mutagenic call,"Test System: AMES SALMONELLA TYPHIMURIUM, Strain/Indicator: TA98, Metabolic Activation: RAT, LIVER, S-9, AROCLOR 1254 (10%), Method: STANDARD PLATE",inactive; negative
same,mutagenic call,"Test System: AMES SALMONELLA TYPHIMURIUM, Strain/Indicator: TA100, Metabolic Activation: HAMSTER, LIVER, S-9, AROCLOR 1254 (10%), Method: STANDARD PLATE",inactive; negative
same,mutagenic call,[3],inactive; negative
same,mutagenic call,"Test System: AMES SALMONELLA TYPHIMURIUM, Strain/Indicator: TA100, Metabolic Activation: RAT, LIVER, S-9, AROCLOR 1254 (10%), Method: STANDARD PLATE",inactive; negative
same,mutagenic call,"Test System: AMES SALMONELLA TYPHIMURIUM, Strain/Indicator: TA1535, Metabolic Activation: HAMSTER, LIVER, S-9, AROCLOR 1254 (10%), Method: STANDARD PLATE",inactive; negative
same,mutagenic call,[4],inactive; negative
same,mutagenic call,"Test System: AMES SALMONELLA TYPHIMURIUM, Strain/Indicator: TA1535, Metabolic Activation: RAT, LIVER, S-9, AROCLOR 1254 (10%), Method: STANDARD PLATE",inactive; negative
same,mutagenic call,"Test System: AMES SALMONELLA TYPHIMURIUM, Strain/Indicator: TA1537, Metabolic Activation: HAMSTER, LIVER, S-9, AROCLOR 1254 (10%), Method: STANDARD PLATE",inactive; negative
same,mutagenic call,[5],inactive; negative
same,mutagenic call,"Test System: AMES SALMONELLA TYPHIMURIUM, Strain/Indicator: TA1537, Metabolic Activation: RAT, LIVER, S-9, AROCLOR 1254 (10%), Method: STANDARD PLATE",inactive; negative
same,mutagenic call,"Test System: AMES SALMONELLA TYPHIMURIUM, Strain/Indicator: TA1538, Metabolic Activation: HAMSTER, LIVER, S-9, AROCLOR 1254 (10%), Method: STANDARD PLATE",inactive; negative
same,mutagenic call,"Test System: AMES SALMONELLA TYPHIMURIUM, Strain/Indicator: TA1538, Metabolic Activation: NONE, Method: STANDARD PLATE",inactive; negative
same,mutagenic call,"Test System: AMES SALMONELLA TYPHIMURIUM, Strain/Indicator: TA1538, Metabolic Activation: RAT, LIVER, S-9, AROCLOR 1254 (10%), Method: STANDARD PLATE",inactive; negative
same,mutagenic call,"Test System: MOUSE LYMPHOMA, Strain/Indicator: L5178Y (TK+/TK-), Metabolic Activation: NONE, Method: SUSPENSION/PLATE",inactive; negative. reevaluation of results: negative
same,mutagenic call,"Test System: MOUSE LYMPHOMA, Strain/Indicator: L5178Y (TK+/TK-), Metabolic Activation: RAT, LIVER, S-9, AROCLOR 1254, Method: SUSPENSION/PLATE",inactive; negative. reevaluation of results: negative
COC(=O)c1cc(OC)c2c(c1-c1c(C(=O)OC)cc(OC)c3c1OCO3)OCO2,mutagenic call,[2],inactive; negative
same,mutagenic call,"Test System: AMES SALMONELLA TYPHIMURIUM, Strain/Indicator: TA98, Metabolic Activation: S-9, Method: STANDARD PLATE",inactive; negative
same,mutagenic call,[3],inactive; negative
same,mutagenic call,"Test System: AMES SALMONELLA TYPHIMURIUM, Strain/Indicator: TA100, Metabolic Activation: S-9, Method: STANDARD PLATE",inactive; negative
same,mutagenic call,[4],inactive; negative
same,mutagenic call,"Test System: AMES SALMONELLA TYPHIMURIUM, Strain/Indicator: TA1535, Metabolic Activation: S-9, Method: STANDARD PLATE",inactive; negative
same,mutagenic call,[5],inactive; negative
same,mutagenic call,"Test System: AMES SALMONELLA TYPHIMURIUM, Strain/Indicator: TA1537, Metabolic Activation: S-9, Method: STANDARD PLATE",inactive; negative

# Reference: PubChem BioAssay AID1259407 (Chemical Carcinogenesis Research Information System (CCRIS), 2018)
